From patent US20260078120A1, “SUBSTITUTED PYRIDOPYRIMIDINONES” (MIRATI THERAPEUTICS, INC., priority 2022, published 2026) come the findings set out here.

Assay [1] relates to SKBR3 (PI3Kα wild type) cells. Briefly: CellTiter-Glo 2.0 luminescent cell viability assay, 72 hours, SKBR3 cells. The class given is cell-based. The settings on record: Homo sapiens, SK-BR-3, 72 h, SKBR3 (PI3Kα wild type) cells, CellTiter-Glo, approximately 72 hours; read-out: SKBR3 (WT) Viability IC50. An outline of the steps:
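Viability measured via CTG luminescence following roughly 72 hours of compound exposure at 37° C. Dosing used a 10 um starting concentration diluted 1:4 over 10 points; percent-of-vehicle data fitted with a variable-slope four-parameter model for IC50.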
Background: ATP-based viability assays read luminescence as a measure of living cells.

Assay [2] has as its system T47D (PI3Kα H1047R mutant) cells. Briefly: CellTiter-Glo 2.0 luminescent cell viability assay, 72 hours, T47D cells. The class given is cell-based. The note with it: Homo sapiens, T47D, 72 h, T47D (PI3Kα H1047R mutant) cells, CellTiter-Glo, approximately 72 hours; read-out: T47D (H1047R mutant) Viability IC50. An outline of the steps:
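Cells seeded at 1000 per well overnight were dosed with a 10-concentration, 1:4 series starting at 10 µM and incubated ~72 h at 37° C. Viability was read by CellTiter-Glo 2.0 luminescence after 30 min at room temperature. IC50 came from four-parameter fits of percent vehicle control.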

Turning to `Cc1cc([C@@H](C)Nc2ccccc2C(=O)O)c2nc(N3CC4CC(C3)N4c3ccc(C#N)cc3)c(C)c(=O)n2c1` [Example 11-135, 2-(((1R)-1-(2-(6-(4-cyanophenyl)-3,6-diazabicyclo[3.1.1]heptan-3-yl)-3,7-dimethyl-4-oxo-4H-pyrido[1,2-a]pyrimidin-9-yl)ethyl)amino)benzoic acid], the 50% inhibitory concentration (IC50) – broadly, the point on the concentration scale where inhibition reaches its midpoint – in assay [1] was over 10000 nM; in assay [2], 169 nM.
In the case of `Cc1cc([C@@H](C)Nc2ccccc2C(=O)O)c2nc(N3CCN(c4nc(C)cs4)CC3)c(C)c(=O)n2c1` [Example 11-446, (R)-2-((1-(3,7-dimethyl-2-(4-(4-methylthiazol-2-yl)piperazin-1-yl)-4-oxo-4H-pyrido[1,2-a]pyrimidin-9-yl)ethyl)amino)benzoic acid], the IC50 in assay [1] is over 10000 nM; in assay [2], 300 nM.
Regarding `Cc1cc([C@@H](C)Nc2ccccc2C(=O)O)c2nc(N3CC4(C3)CC4(F)F)c(C)c(=O)n2c1` [Example 11-103, (R)-2-((1-(2-(1,1-difluoro-5-azaspiro[2.3]hexan-5-yl)-3,7-dimethyl-4-oxo-4H-pyrido[1,2-a]pyrimidin-9-yl)ethyl)amino)benzoic acid], the values for the IC50 in assay [1] and in assay [2] were over 10000 nM and 475 nM, respectively.
For `Cc1cc([C@@H](C)Nc2ccccc2C(=O)O)c2nc(N3CCC4(CC3)CC(F)(F)C4)c(C)c(=O)n2c1` [Example 11-54, (R)-2-((1-(2-(2,2-difluoro-7-azaspiro[3.5]nonan-7-yl)-3,7-dimethyl-4-oxo-4H-pyrido[1,2-a]pyrimidin-9-yl)ethyl)amino)benzoic acid], the IC50 in assay [1] is over 10000 nM; in assay [2], 325 nM.
`Cc1cc([C@@H](C)Nc2ccccc2C(=O)O)c2nc(N3CCNC(=O)C3)c(C#N)c(=O)n2c1` [Example 11-284, (R)-2-((1-(3-cyano-7-methyl-4-oxo-2-(3-oxopiperazin-1-yl)-4H-pyrido[1,2-a]pyrimidin-9-yl)ethyl)amino)benzoic acid]: the IC50 in assay [1] and in assay [2] was over 10000 nM each time.
Take `Cc1cc([C@@H](C)Nc2cnc(Cl)nc2C(=O)O)c2nc(N3Cc4ccccc4C3)c(C#N)c(=O)n2c1` [Example 11-325, (R)-2-chloro-5-((1-(3-cyano-2-(isoindolin-2-yl)-7-methyl-4-oxo-4H-pyrido[1,2-a]pyrimidin-9-yl)ethyl)amino)pyrimidine-4-carboxylic acid]: the IC50 in assay [1] is over 10000 nM; in assay [2], 3080 nM.
On to `Cc1cc([C@@H](C)Nc2ccccc2C(=O)O)c2nc(O[C@@H]3CCOC3)c(C#N)c(=O)n2c1` [Example 11-247, 2-(((R)-1-(3-cyano-7-methyl-4-oxo-2-(((R)-tetrahydrofuran-3-yl)oxy)-4H-pyrido[1,2-a]pyrimidin-9-yl)ethyl)amino)benzoic acid], for which the IC50 in assay [1] is over 10000 nM; in assay [2] it was 1540 nM.
Turning to `Cc1cc([C@@H](C)Nc2ccccc2C(=O)O)c2nc(N3CCC4(CC3)C(F)(F)C4(F)F)c(C)c(=O)n2c1` [Example 11-213, (R)-2-((1-(3,7-dimethyl-4-oxo-2-(1,1,2,2-tetrafluoro-6-azaspiro[2.5]octan-6-yl)-4H-pyrido[1,2-a]pyrimidin-9-yl)ethyl)amino)benzoic acid], the IC50 is over 10000 nM in assay [1] and 257 nM in assay [2].
For `Cc1cc([C@@H](C)Nc2ccccc2C(=O)O)c2nc(N3CC4CC4C3)c(C)c(=O)n2c1` (stereo partly drawn) [Example 11-224, 2-(((1R)-1-(2-(3-azabicyclo[3.1.0]hexan-3-yl)-3,7-dimethyl-4-oxo-4H-pyrido[1,2-a]pyrimidin-9-yl)ethyl)amino)benzoic acid] the same measures were over 10000 nM and 120 nM.
Take `Cc1cc(C(C)Nc2ccccc2C(=O)O)c2nc(N3Cc4cccc(C#N)c4C3)cc(=O)n2c1` (stereo not drawn) [Example 11-338, 2-((1-(2-(4-cyanoisoindolin-2-yl)-7-methyl-4-oxo-4H-pyrido[1,2-a]pyrimidin-9-yl)ethyl)amino)benzoic acid]: the IC50 in assay [1] was over 10000 nM; in assay [2], 2420 nM.
The matching figures for `Cc1cc([C@@H](C)Nc2ccccc2C(=O)O)c2nc(N3CCC4(CC3)CC4(F)F)c(C#N)c(=O)n2c1` [Example 11-218, (R)-2-((1-(3-cyano-2-(1,1-difluoro-6-azaspiro[2.5]octan-6-yl)-7-methyl-4-oxo-4H-pyrido[1,2-a]pyrimidin-9-yl)ethyl)amino)benzoic acid]: over 10000 nM and 177 nM.
`Cc1cc([C@@H](C)Nc2ccccc2C(=O)O)c2nc(N3C4CC3CN(c3ccc(C#N)cc3)C4)c(C)c(=O)n2c1` [Example 11-181, 2-(((1R)-1-(2-(3-(4-cyanophenyl)-3,6-diazabicyclo[3.1.1]heptan-6-yl)-3,7-dimethyl-4-oxo-4H-pyrido[1,2-a]pyrimidin-9-yl)ethyl)amino)benzoic acid]: the IC50 in assay [1] and in assay [2] was over 10000 nM in each case.
`Cc1cc([C@@H](C)Nc2ccccc2C(=O)O)c2nc(N3CCCCCC3)c(C#N)c(=O)n2c1` [Example 11-319, (R)-2-((1-(2-(azepan-1-yl)-3-cyano-7-methyl-4-oxo-4H-pyrido[1,2-a]pyrimidin-9-yl)ethyl)amino)benzoic acid]: the half-maximal inhibitory concentration (IC50) in assay [1] was over 10000 nM; in assay [2], 162 nM.
Take `Cc1cc([C@@H](C)Nc2ccccc2C(=O)O)c2nc(N3CC4CCC3CC4O)c(C)c(=O)n2c1` (stereo partly drawn) [Example 11-30, 2-(((1R)-1-(2-(5-hydroxy-2-azabicyclo[2.2.2]octan-2-yl)-3,7-dimethyl-4-oxo-4H-pyrido[1,2-a]pyrimidin-9-yl)ethyl)amino)benzoic acid]: the IC50 in assay [1] is over 10000 nM; in assay [2] it was 401 nM.
The matching figures for `Cc1cc([C@@H](C)Nc2ccccc2C(=O)O)c2nc(N3Cc4ccncc4C3)c(C#N)c(=O)n2c1` [Example 11-286, (R)-2-((1-(3-cyano-2-(1,3-dihydro-2H-pyrrolo[3,4-c]pyridin-2-yl)-7-methyl-4-oxo-4H-pyrido[1,2-a]pyrimidin-9-yl)ethyl)amino)benzoic acid]: over 10000 nM and 284 nM.
For `Cc1cc([C@@H](C)Nc2ccccc2C(=O)O)c2nc(N3CCN(C4COC4)CC3)c(C)c(=O)n2c1` [Example 11-153, (R)-2-((1-(3,7-dimethyl-2-(4-(oxetan-3-yl)piperazin-1-yl)-4-oxo-4H-pyrido[1,2-a]pyrimidin-9-yl)ethyl)amino)benzoic acid] the same measures were over 10000 nM and 880 nM.
With `Cc1cc([C@@H](C)Nc2ccccc2C(=O)O)c2nc(N3CC(c4ccccn4)C3)c(C)c(=O)n2c1` [Example 11-16, (R)-2-((1-(3,7-dimethyl-4-oxo-2-(3-(pyridin-2-yl)azetidin-1-yl)-4H-pyrido[1,2-a]pyrimidin-9-yl)ethyl)amino)benzoic acid], the results for the IC50 in assay [1] and in assay [2] were over 10000 nM and 389 nM, respectively.
Take `CC(=O)N1CCN(c2cc(=O)n3cc(C)cc(C(C)Nc4ccccc4C(=O)O)c3n2)CC1` (stereo not drawn) [Example 11-337, 2-((1-(2-(4-acetylpiperazin-1-yl)-7-methyl-4-oxo-4H-pyrido[1,2-a]pyrimidin-9-yl)ethyl)amino)benzoic acid]: the IC50 in assay [1] and in assay [2] was over 10000 nM in each case.
On to `Cc1cc([C@@H](C)Nc2ccccc2C(=O)O)c2nc(N3Cc4ccc(F)cc4C3)c(C)c(=O)n2c1` [Example 10-134, (R)-2-((1-(2-(5-fluoroisoindolin-2-yl)-3,7-dimethyl-4-oxo-4H-pyrido[1,2-a]pyrimidin-9-yl)ethyl)amino)benzoic acid], for which the IC50 is over 10000 nM in assay [1] and 56.6 nM in assay [2].
As to `Cc1cc([C@@H](C)Nc2ccccc2C(=O)O)c2nc(O[C@@H]3CCOC3)c(C)c(=O)n2c1` [Example 11-245, 2-(((R)-1-(3,7-dimethyl-4-oxo-2-(((R)-tetrahydrofuran-3-yl)oxy)-4H-pyrido[1,2-a]pyrimidin-9-yl)ethyl)amino)benzoic acid], the half-maximal inhibitory concentration (IC50) in assay [1] is over 10000 nM; in assay [2] it was 166 nM.
As for `Cc1cc([C@@H](C)Nc2ccccc2C(=O)O)c2nc(N3CCN(c4ccc(C#N)cc4)CC3)c(C#N)c(=O)n2c1` [Example 11-272, (R)-2-((1-(3-cyano-2-(4-(4-cyanophenyl)piperazin-1-yl)-7-methyl-4-oxo-4H-pyrido[1,2-a]pyrimidin-9-yl)ethyl)amino)benzoic acid], the values for the IC50 in assay [1] and in assay [2] were over 10000 nM and 141 nM, respectively.
In the case of `Cc1cc([C@@H](C)Nc2ccccc2C(=O)O)c2nc(N3CC(F)C3)c(C)c(=O)n2c1` [Example 11-114, (R)-2-((1-(2-(3-fluoroazetidin-1-yl)-3,7-dimethyl-4-oxo-4H-pyrido[1,2-a]pyrimidin-9-yl)ethyl)amino)benzoic acid], the IC50 in assay [1] is over 10000 nM; in assay [2], 257 nM.
`Cc1cc([C@@H](C)Nc2ccc(Cl)cc2C(=O)O)c2nc(N3CCC(F)(F)CC3)c(C)c(=O)n2c1` [Example 11-91, (R)-5-chloro-2-((1-(2-(4,4-difluoropiperidin-1-yl)-3,7-dimethyl-4-oxo-4H-pyrido[1,2-a]pyrimidin-9-yl)ethyl)amino)benzoic acid]: the IC50 in assay [1] was over 10000 nM; in assay [2], 358 nM.
Regarding `CO[C@@H]1CN(c2nc3c([C@@H](C)Nc4ccccc4C(=O)O)cc(C)cn3c(=O)c2C)CCC1(F)F` [Example 11-58, 2-(((R)-1-(2-((R)-4,4-difluoro-3-methoxypiperidin-1-yl)-3,7-dimethyl-4-oxo-4H-pyrido[1,2-a]pyrimidin-9-yl)ethyl)amino)benzoic acid], the IC50 in assay [1] is over 10000 nM; in assay [2], 170 nM.
